PubChem BioAssay AID1626 (SRMLSC, 2009)
pIC50: −log10 of the molar value.

Tested on: M. tuberculosis H37Rv growth inhibition
Test: M. tuberculosis H37Rv growth inhibitors, H37Rv strain (AID 1626)
Conditions: for IC90: measured here: IC90 against H37Rv; for CC50: measured here: Vero cell cytotoxicity

SMILES | pIC50 | IC90 | CC50
CC(C)(C)c1nn(-c2ccccc2)c2[nH]c(=O)c(CNCc3ccc4c(c3)OCO4)cc12 | 4.95 | 13.8 µM | > 40 µM
COCCn1nnnc1C(c1cc2cc(OC)ccc2[nH]c1=O)N1CCC(Cc2ccccc2)CC1 (stereo not drawn) | 5.12 | 15.8 µM | –
CCOC(=O)COc1ccc2c(=O)cc(-c3ccccc3)oc2c1 | > 6.71 | 0.963 µM | –
COC(=O)CSc1ccnc2cc(Cl)ccc12 | 5.37 | 12.3 µM | –
O=C(Nc1ncc(Cc2ccccc2)s1)C1=NCCN1 | 4.94 | > 100 µM | > 40 µM
CC(C)[C@H]1C(=O)O[C@H](C(C)C)C(=O)N(C)[C@@H](C(C)C)C(=O)O[C@H](C(C)C)C(=O)N(C)[C@@H](C(C)C)C(=O)O[C@H](C(C)C)C(=O)N1C | 5.14 | 8.9 µM | 12.3 µM
CC(=O)c1ccc(NC(=O)COC(=O)c2c3c(nc4ccccc24)/C(=C\c2cccs2)CCC3)cc1 | 6.35 | > 100 µM | 13.6 µM
O=C(CSC1=NCCS1)Nc1ccc2ccccc2c1 | – | > 100 µM | –
Cc1c(Cl)c([N+](=O)[O-])nn1CCCC(=O)Nc1cc(Oc2ccccc2)cc([N+](=O)[O-])c1 | 5.16 | 10.5 µM | 28.7 µM
NC(=O)c1ccc(NC(=O)COC(=O)c2c3c(nc4ccccc24)/C(=C\c2cccs2)CCC3)cc1 | 6.24 | 9.77 µM | 7.95 µM
CC(C)OC(=O)c1ccc(NC(=O)c2cncc(Br)c2)cc1 | – | > 100 µM | –
CC(C)COC(=O)c1ccc2c(c1O)C(=O)c1ccccc1C2=O | 5.60 | 4.11 µM | 27.8 µM
O=C(Nc1nnc(-c2ccccc2)o1)c1ccc(Cl)cc1 | > 6.71 | 95.1 µM | 34.3 µM
COc1cccc2c1nc(C)c1cc(C)oc12 | 5.25 | > 100 µM | > 40 µM
COC(=O)CSc1ccc2c(N)c(C(=O)OC)sc2c1 | 5.78 | 2.82 µM | –
COc1ccc2cc(C(c3nnnn3C3CCCC3)N3CCCCCC3)c3nnnn3c2c1 (stereo not drawn) | – | – | 15.1 µM

SMILES | pIC50 | IC90 | CC50
CCc1ccc(NC(=O)CSc2nnc(-c3ccccn3)n2C)cc1 | – | > 100 µM | –
O=C(Cn1cnc2c(nnn2-c2ccccc2)c1=O)N1CCC(Cc2ccccc2)CC1 | 5.24 | 6.58 µM | > 40 µM
O=c1c([N+](=O)[O-])cc(C(F)(F)F)cn1Cc1cccc(Cl)c1 | 5.07 | 22.2 µM | –
N#Cc1ccc(-c2ccccc2)nc1SCC(=O)c1cc2ccccc2oc1=O | 5.78 | 2.16 µM | > 40 µM
COc1ccc(/C=C/C(=O)c2ccc(C)c([N+](=O)[O-])c2)cc1O | – | > 100 µM | 34.8 µM
Cc1cc(NC(=O)C2CCCCC2)n(-c2nc3ccccc3[nH]2)n1 | 5.59 | 5.5 µM | 38 µM
Cc1[nH]n(-c2nc(-c3ccc(Cl)cc3)cs2)c(=O)c1N=Nc1ccc(O)cc1 | > 6.71 | 5.6 µM | 15.8 µM
COC(=O)c1c(NC(=O)c2ccccc2)sc(C(=O)c2ccccc2)c1C | 5.02 | 25.6 µM | 25.3 µM
NS(=O)(=O)c1ccc(CCNC(=O)c2ccc3nc4ccc(Cl)cc4c(=O)n3c2)cc1 | 5.00 | 30.3 µM | –
C=CCNc1nnc(Sc2ncccc2[N+](=O)[O-])s1 | 5.40 | 6.01 µM | –
Cc1c(C(=O)N2CCCCC2)sc(NC(=O)C23CC4CC(CC(C4)C2)C3)c1C#N | 4.39 | > 100 µM | –
COc1ccc(-c2n(CC(=O)OC3CC(C)CCC3C(C)C)c3ccccc3[n+]2C)cc1 (stereo not drawn) | 6.01 | 2.37 µM | 23.9 µM
COC(=O)C1C(O)C(C)C(O)C(C)(O)/C=C\C=C(/C)C(=O)Nc2c(C)c(OC(C)=O)c3c(c2O)C(=O)C(C)=C2OCOC(=C23)/C(C)=C/C(C)(O)C(O)C(C)C1O (stereo not drawn) | 6.49 | 0.878 µM | –
CSc1nc(N(C)C)c2ccccc2n1 | 4.37 | > 100 µM | –
Cc1ccccc1NC(=O)Nc1ccc(C(F)(F)F)cc1 | – | > 100 µM | 23.5 µM
